From US20230079045A1 (priority 2019, published 2023)

System: IFV A/PR/8/34
Experiment: cytopathic effect (CPE) antiviral test in MDCK cells, IFV A/PR/8/34
Assay type: cell-based, influenza virus
Details: unidentified influenza virus, PR/8, MDCK, 120 h, read-out: EC50(IFV A/PR/8/34)

SMILES | EC50 [nM]
O=C(Nc1ccc2nc(-c3ccnc(C(=O)N4CCN(C(c5ccccc5)c5nnn(C(F)F)n5)CC4)c3)oc2c1)[C@@H]1C[C@@H]1F (mixture of isomers) [Compound 93, (1S,2S)—N-(2-(2-(4-((R/S)-(2-(difluoromethyl)-2H-tetrazol-5-yl)(phenyl)methyl)piperazine-1-carbonyl)pyridin-4-yl)benzo[d]oxazol-6-yl)-2-fluorocyclopropane-1-carboxamide] | 16
O=C(Nc1ccc2oc(-c3ccnc(C(=O)N4CCN(C(c5ccsc5)c5nnn(C(F)F)n5)CC4)c3)nc2c1)[C@@H]1C[C@@H]1F (mixture of isomers) [Compound 122, (1S,2S)—N-(2-(2-(4-((R/S)-(2-(difluoromethyl)-2H-tetrazol-5-yl)(thiophen-3-yl)methyl)piperazine-1-carbonyl)pyridin-4-yl)benzo[d]oxazol-5-yl)-2-fluorocyclopropane-1-carboxamide] | 19
O=C(Nc1ccc2oc(-c3ccnc(C(=O)N4CCC(C(c5ccccc5)n5nnc(C(F)F)n5)CC4)c3)nc2c1)[C@@H]1C[C@@H]1F (mixture of isomers) [Compound 138, (1S,2S)—N-(2-(2-(4-((R/S)-(5-(difluoromethyl)-2H-tetrazol-2-yl)(phenyl)methyl)piperidine-1-carbonyl)pyridin-4-yl)benzo[d]oxazol-5-yl)-2-fluorocyclopropanecarboxamide] | 4
O=C(Nc1ccc2oc(-c3ccnc(C(=O)N4CCC(C(c5ccccc5)c5nnn(C(F)F)n5)CC4)c3)nc2c1)[C@@H]1C[C@@H]1F (mixture of isomers) [Compound 168, (1S,2S)—N-(2-(2-(4-((R/S)-(2-(difluoromethyl)-2H-tetrazol-5-yl)(phenyl)methyl)piperidine-1-carbonyl)pyridin-4-yl)benzo[d]oxazol-5-yl)-2-fluorocyclopropane-1-carboxamide] | 2
Cc1nnn(C(c2ccccc2)C2CCN(C(=O)c3cc(-c4nc5cc(NC(=O)[C@H]6C[C@@H]6F)ccc5o4)ccn3)CC2)n1 (mixture of isomers) [Compound 184, (1R,2S)-2-fluoro-N-(2-(2-(4-((R/S)-(5-methyl-2H-tetrazol-2-yl)(phenyl)methyl)piperidine-1-carbonyl)pyridin-4-yl)benzo[d]oxazol-5-yl)cyclopropanecarboxamide] | 14
Cc1nnn(C(c2ccccc2)C2CCN(C(=O)c3cc(-c4nc5cc(NC(=O)[C@H]6C[C@H]6F)ccc5o4)ccn3)CC2)n1 (mixture of isomers) [Compound 185, (1R,2R)-2-fluoro-N-(2-(2-(4-((R/S)-(5-methyl-2H-tetrazol-2-yl)(phenyl)methyl)piperidine-1-carbonyl)pyridin-4-yl)benzo[d]oxazol-5-yl)cyclopropanecarboxamide] | 24
Cc1nnn(C(c2ccccc2)C2CCN(C(=O)c3cc(-c4nc5cc(NC(=O)[C@@H]6C[C@H]6F)ccc5o4)ccn3)CC2)n1 (mixture of isomers) [Compound 190, (1S,2R)-2-fluoro-N-(2-(2-(4-((R/S)-(5-methyl-2H-tetrazol-2-yl)(phenyl)methyl)piperidine-1-carbonyl)pyridin-4-yl)benzo[d]oxazol-5-yl)cyclopropane-1-carboxamide] | 11
O=C(Nc1ccc2oc(-c3ccnc(C(=O)N4CCC(C(c5ccccc5)n5nnc(CO)n5)CC4)c3)nc2c1)[C@@H]1C[C@@H]1F (mixture of isomers) [Compound 197, (1S,2S)-2-fluoro-N-(2-(2-(4-((R/S)-(5-(hydroxymethyl)-2H-tetrazol-2-yl)(phenyl)methyl)piperidine-1-carbonyl)pyridin-4-yl)benzo[d]oxazol-5-yl)cyclopropane-1-carboxamide] | 0.9
CC(=O)OCc1nnn(C(c2ccccc2)C2CCN(C(=O)c3cc(-c4nc5cc(NC(=O)[C@@H]6C[C@@H]6F)ccc5o4)ccn3)CC2)n1 (mixture of isomers) [Compound 199, (2-((R/S)-(1-(4-(5-((1S,2S)-2-fluorocyclopropane-1-carboxamido)benzo[d]oxazol-2-yl)picolinoyl)piperidin-4-yl)(phenyl)methyl)-2H-tetrazol-5-yl)methyl acetate] | 1.8
COCc1nnn(C(c2ccccc2)C2CCN(C(=O)c3cc(-c4nc5cc(NC(=O)[C@@H]6C[C@@H]6F)ccc5o4)ccn3)CC2)n1 (mixture of isomers) [Compound 200, (1S,2S)-2-fluoro-N-(2-(2-(4-((R/S)-(5-(methoxymethyl)-2H-tetrazol-2-yl)(phenyl)methyl)piperidine-1-carbonyl)pyridin-4-yl)benzo[d]oxazol-5-yl)cyclopropane-1-carboxamide] | 2.1
Cc1nnn(C(c2ccccc2)C2CC3CCC(C2)N3C(=O)c2cc(-c3nc4cc(NC(=O)[C@@H]5C[C@@H]5F)ccc4o3)ccn2)n1 (mixture of isomers) [Compound 208, (1S,2S)-2-fluoro-N-(2-(2-(3-((R/S)-(5-methyl-2H-tetrazol-2-yl)(phenyl)methyl)-8-azabicyclo[3.2.1]octane-8-carbonyl)pyridin-4-yl)benzo[d]oxazol-5-yl)cyclopropanecarboxamide] | 6.9
NCc1nnn(C(c2ccccc2)C2CCN(C(=O)c3cc(-c4nc5cc(NC(=O)[C@@H]6C[C@@H]6F)ccc5o4)ccn3)CC2)n1 (mixture of isomers) [Compound 210, (1S,2S)—N-(2-(2-(4-((R/S)-(5-(aminomethyl)-2H-tetrazol-2-yl)(phenyl)methyl)piperidine-1-carbonyl)pyridin-4-yl)benzo[d]oxazol-5-yl)-2-fluorocyclopropane-1-carboxamide] | 0.8
CNCc1nnn(C(c2ccccc2)C2CCN(C(=O)c3cc(-c4nc5cc(NC(=O)[C@@H]6C[C@@H]6F)ccc5o4)ccn3)CC2)n1 (mixture of isomers) [Compound 211, (1S,2S)-2-fluoro-N-(2-(2-(4-((R/S)-(5-((methylamino)methyl)-2H-tetrazol-2-yl)(phenyl)methyl)piperidine-1-carbonyl)pyridin-4-yl)benzo[d]oxazol-5-yl)cyclopropane-1-carboxamide] | 0.3
O=C(Nc1ccc2oc(-c3ccnc(C(=O)N4CCN(C(c5ccccc5)c5nnn(CCO)n5)CC4)c3)nc2c1)[C@@H]1C[C@@H]1F (mixture of isomers) [Compound 212, (1S,2S)-2-fluoro-N-(2-(2-(4-((R/S)-(2-(2-hydroxyethyl)-2H-tetrazol-5-yl)(phenyl)methyl)piperazine-1-carbonyl)pyridin-4-yl)benzo[d]oxazol-5-yl)cyclopropane-1-carboxamide] | 2.2
COCn1nnc(C(c2ccccc2)N2CCN(C(=O)c3cc(-c4nc5cc(NC(=O)[C@@H]6C[C@@H]6F)ccc5o4)ccn3)CC2)n1 (mixture of isomers) [Compound 214, (1S,2S)-2-fluoro-N-(2-(2-(4-((R/S)(2-(methoxymethyl)-2H-tetrazol-5-yl)(phenyl)methyl)piperazine-1-carbonyl)pyridin-4-yl)benzo[d]oxazol-5-yl)cyclopropane-1-carboxamide] | 1.9
Cc1nnn(C(c2ccccc2)C2CCN(C(=O)c3nccc(-c4nc5cc(NC(=O)[C@@H]6C[C@@H]6F)ccc5o4)c3F)CC2)n1 (mixture of isomers) [Compound 219, (1S,2S)-2-fluoro-N-(2-(3-fluoro-2-(4-((R/S)-(5-methyl-2H-tetrazol-2-yl)(phenyl)methyl)piperidine-1-carbonyl)pyridin-4-yl)benzo[d]oxazol-5-yl)cyclopropanecarboxamide] | 1.9
O=C(c1cc(-c2nc3cc(-c4ccns4)ccc3o2)ccn1)N1CCN(C(c2ccccc2)c2nnn(C(F)F)n2)CC1 (racemic) [Compound 115, (R/S)-(4-((2-(difluoromethyl)-2H-tetrazol-5-yl)(phenyl)methyl)piperazin-1-yl)(4-(5-(isothiazol-5-yl)benzo[d]oxazol-2-yl)pyridin-2-yl)methanone] | 64
O=C(c1cc(-c2nc3ccc(NC(=O)C4(F)CC4)cc3o2)ccn1)N1CCN(C(c2ccccc2)c2nnn(C(F)F)n2)CC1 (racemic) [Compound 125, (R/S)—N-(2-(2-(4-((2-(difluoromethyl)-2H-tetrazol-5-yl)(phenyl)methyl)piperazine-1-carbonyl)pyridin-4-yl)benzo[d]oxazol-6-yl)-1-fluorocyclopropane-1-carboxamide] | 12
Cn1cncc1-c1ccc2oc(-c3ccnc(C(=O)N4CCN(C(c5ccccc5)c5nnn(C(F)F)n5)CC4)c3)nc2c1 (racemic) [Compound 126, (R/S)-(4-((2-(difluoromethyl)-2H-tetrazol-5-yl)(phenyl)methyl)piperazin-1-yl)(4-(5-(1-methyl-1H-imidazol-5-yl)benzo[d]oxazol-2-yl)pyridin-2-yl)methanone] | 1
CCn1cc(-c2ccc3oc(-c4ccnc(C(=O)N5CCN(C(c6ccccc6)c6nnn(C(F)F)n6)CC5)c4)nc3c2)cn1 (racemic) [Compound 127, (R/S)-(4-((2-(difluoromethyl)-2H-tetrazol-5-yl)(phenyl)methyl)piperazin-1-yl)(4-(5-(1-ethyl-1H-pyrazol-4-yl)benzo[d]oxazol-2-yl)pyridin-2-yl)methanone] | 4
O=C(c1cc(-c2nc3cc(NC(=O)C4(F)CC4)ccc3o2)ccn1)N1CCN(C(c2ccccc2)c2nnn(C(F)F)n2)CC1 (racemic) [Compound 129] | 12
Cn1cc(-c2ccc3oc(-c4ccnc(C(=O)N5CCN(C(c6ccccc6)c6nnn(C(F)F)n6)CC5)c4)nc3c2)nn1 (racemic) [Compound 130, (R/S)-(4-((2-(difluoromethyl)-2H-tetrazol-5-yl)(phenyl)methyl)piperazin-1-yl)(4-(5-(1-methyl-1H-1,2,3-triazol-4-yl)benzo[d]oxazol-2-yl)pyridin-2-yl)methanone] | 29
Cn1nncc1-c1ccc2oc(-c3ccnc(C(=O)N4CCN(C(c5ccccc5)c5nnn(C(F)F)n5)CC4)c3)nc2c1 (racemic) [Compound 131, (R/S)-(4-((2-(difluoromethyl)-2H-tetrazol-5-yl)(phenyl)methyl)piperazin-1-yl)(4-(5-(1-methyl-1H-1,2,3-triazol-5-yl)benzo[d]oxazol-2-yl)pyridin-2-yl)methanone] | 12
